Test results published in US20260207530A1, “USE FOR AMELIORATION OF INTESTINAL DISEASES USING ALLULOSE” (SAMYANG CORPORATION, priority 2022, published 2026).

Legend:
Assay type in all cases: cell-based, human
[1] = tested on: TLR4/NF-κB signaling; experiment: Expression of TLR4/NF-κB signaling factors in Caco-2 cells with LPS-induced inflammation (RT-PCR, Western blot); settings: Caco-2, allulose 5, 10, 20 mM, LPS 1 μg/ml 24 hours
Description: The anti-inflammatory effect of allulose was confirmed in Caco-2 cells with inflammation induced with LPS (Lipopolysaccharide). The gene and protein expression levels of factors (p50, p65, TLR4, MyD88, IKKα, IKKβ, IKβα, IRAK4, TRAF6) related to TLR4/NF-κB signaling, which is a signaling that mediates the inflammatory response, were confirmed through RT-PCR and Western blot.
Specifically, Caco-2 cells were cultured and differentiated at a density of 2×10^5 cells/well in 24-well plates and simultaneously treated with allulose dissolved in MEM medium as culture medium of Caco-2 cells, at concentrations of 5, 10, and 20 mM. After 6 hours, LPS (1 μg/ml) was treated to induce inflammation for 24 hours. The culture was performed in an incubator at 5% CO2 and 37° C.
As a negative control, Caco-2 cells not treated with LPS were used. As a positive control, the differentiated Caco-2 cells which were treated with LPS to induce inflammation but not treated with allulose were used.
After extracting RNA from the cells using Trizol, cDNA was synthesized using a cDNA synthesis kit, and the expression level of the genes was confirmed by qRT-PCR using primers designed for each gene. The PCR conditions used were denaturation at 95° C. for 15 seconds, annealing at 62° C. for 30 seconds, and an elongation process at 72° C. for 1 minute. For protein expression analysis, proteins were extracted from the cultured cells using RIPA lysis buffer. The extracted proteins were pretreated by reaction at 95° C. for 5 minutes, and then separated by electrophoresis on SDS-PAGE. After the proteins were transferred to a PVDF membrane, they were blocked in a 5% (w/v) BSA solution for 1 hour, and the primary antibodies for each factor were diluted 1:1000 in a 5% (w/v) BSA solution and reacted at 4° C. for one day. […] The bands were detected using a LAS 4000 system, and the expression density was calculated using image detection software (Image J software) to calculate the expression amount.

[2] = tested on: TLR4/NF-κB signaling and TLR4/MAPK signaling; experiment: Expression of TLR4/NF-κB and TLR4/MAPK signaling factors in HT-29 cells with LPS-induced inflammation (RT-PCR, Western blot); settings: HT-29, allulose 5, 10, 20 mM, LPS 1 μg/ml
Description: HT-29 cells were treated simultaneously with LPS (1 μg/ml) and allulose, and reacted for 8 hours. Specifically, HT-29 cells were seeded at a concentration of 2×10^5 cells/well in 24-well plates and cultured in an incubator at 37° C. and % CO2 for 6-7 days. Allulose dissolved in RPMI 1640 medium, which is a HT-29 culture medium, was treated simultaneously at concentrations of 5, 10, and 20 mM, and after 8 hours, LPS (1 μg/ml) was treated to induce inflammation for 24 hours.
The gene and protein expression levels of Factors involved in TLR4/NF-κB signaling and TLR4/MAPK signaling were confirmed using RT-PCR and Western blot. After extracting RNA from cells using Trizol, cDNA was synthesized using a cDNA synthesis kit, and the gene expression levels were measured by qRT-PCR using primers designed for each gene. The PCR conditions used were denaturation at 95° C. for 15 seconds, annealing at 62° C. for 30 seconds, and elongation at 72° C. for 1 minute. For protein expression analysis, proteins were extracted from cultured cells using RIPA lysis buffer. The extracted proteins were pretreated by reacting at 95° C. for 5 minutes, and then separated by electrophoresis in SDS-PAGE. After transferring the protein to the PVDF membrane, it was blocked in 5% (w/v) BSA solution for 1 hour, and the primary antibody for each factor was diluted 1:1000 with 5% (w/v) BSA solution and reacted at 4° C. for 1 day. The membrane reacted with the primary antibody was reacted with the secondary antibody in tris-buffered saline solution containing 0.1% (v/v) Tween 20 for 1 hour at room temperature. The bands were detected using the LAS 4000 system, and the expression density was calculated using image detection software (image J software) to calculate the expression amount.

[3] = tested on: Prostaglandin E2 and COX-2; experiment: Prostaglandin E2 (ELISA) and COX-2 (RT-PCR) in Caco-2 cells with LPS-induced inflammation; settings: allulose 5, 10, 20 mM 6 hours, then LPS 1 μg/ml 12 hours
Description: Caco-2 cells were cultured in 24-well plates at a density of 2×10^5 cells/well. The medium was replaced every two days, and allulose was simultaneously treated at concentrations of 5 mM, 10 mM, and 20 mM, and cultured for 6 hours after treatment and reacted for 12 hours after LPS (1 μg/ml) treatment. The supernatant was used for ELISA analysis, and RNA was extracted from the cells using Trizol, and cDNA was synthesized using a cDNA synthesis kit. Then, the expression level of the genes was assessed by qRT-PCR using primers designed for each gene. The PCR conditions used were denaturation at 95° C. for 15 seconds, annealing at 62° C. for 30 seconds, and an elongation process at 72° C. for 1 minute.

[4] = tested on: mucin genes (MUC2, MUC5AC, MUC5B); experiment: Mucin gene expression in HT-29 cells with LPS-induced inflammation (RT-PCR); settings: HT-29, RT-PCR, allulose 5, 10, 20 mM, LPS 1 μg/ml 24 hours
Description: The effect of allulose on expression level of mucins was confirmed in HT-29 cells with LPS-induced inflammation. Specifically, HT-29 cells were seeded at a concentration of 2×10^5 cells/well in 24-well plates and cultured in an incubator at 37° C. and % CO2 for 6-7 days. Allulose dissolved in RPMI 1640 medium of a HT-29 culture medium, was simultaneously treated at concentrations of 5, 10, and 20 mM, and after 8 hours, LPS (1 μg/ml) was treated to induce inflammation for 24 hours. Afterwards, the cells were washed with PBS, RNA was extracted from the cells using Trizol, and cDNA was synthesized using a cDNA synthesis kit. Then, the expression level of the gene was assessed by qRT-PCR using primers produced for mucin genes (MUC2, MUC5AC, MUC5B) that protected the intestinal mucosa. The PCR conditions used were denaturation at 95° C. for 15 seconds, annealing at 62° C. for 30 seconds, and elongation at 72° C. for 1 minute.

[5] = tested on: polarized Caco-2 cells; experiment: Transepithelial electrical resistance (TEER) in polarized Caco-2 cells treated with IFN-γ/TNF-α; settings: polarized Caco-2, IFN-γ 10 ng/ml 24 hours, allulose 1 hour, TNF-α 10 ng/ml 6 hours; vs TEER decreased by IFN-γ/TNF-α
Description: Transepithelial electrical resistance (TEER) was measured as an indicator of the adhesive strength between intestinal epithelial cells using allulose as an active ingredient, and the electrical resistance values of the upper and lower layers of intestinal cells for allulose materials were examined. Specifically, Caco-2 cells were seeded in the upper layer of a Transwell insert at a concentration of 5×10^4 cells/well, and 600 μl of medium without cells was added to the lower layer and cultured. The medium was replaced every 2 days, and cultured for 3 weeks to form polarization. After polarization formation, the upper layer with cells was pre-treated with IFN-γ (10 ng/ml) for 24 hours, allulose was treated at various concentrations for 1 hour, and TNF-α (10 ng/ml) was treated for 6 hours. After the reaction was completed, the electrical resistance value TEER was measured using a Millicell ERS-2 Voltohmmeter.

[6] = tested on: Caco-2 cells; experiment: ROS accumulation with DCFH-DA fluorescent probe in Caco-2 cells with LPS-induced inflammation; settings: Caco-2, LPS 1 μg/ml and allulose 5, 10, 20 mM 12 h
Description: Caco- 2 cells were seeded at 5×10^4 cells/well in 96-well plates and cultured. After simultaneous treatment with LPS (1 μg/ml) and allulose at concentrations of 5 mM, 10 mM, and 20 mM, the cells were cultured for 12 h under conditions of 5% CO2 and 37° C. After removing the culture supernatant, DCF-DA was added to the medium at a concentration of 20 μM and cultured in an incubator for 30 min. After culture, the cells were washed with PBS and the amount of ROS production was measured using fluorescence absorbance at excitation of 488 nm and emission of 535 nm.

[7] = tested on: ZO-1 and Occludin; experiment: Expression of tight junction factors ZO-1 and Occludin in Caco-2 cells with LPS-induced inflammation (RT-PCR, Western blot); settings: Caco-2, allulose 5, 10, 20 mM 6 hours, then LPS 1 μg/ml 12 hours; vs level decreased by inflammation
Description: Caco-2 cells were cultured in 24-well plates at a density of 2×10^5 cells/well. The medium was replaced every other day, and the cells were cultured for 6 hours after treatment with 5, 10, and 20 mM allulose, and reacted for 12 hours after treatment with LPS (1 μg/ml). After extracting RNA from the cells using Trizol, cDNA was synthesized using a cDNA synthesis kit, and the gene expression level was confirmed by qRT-PCR using primers designed for each gene. The PCR conditions used were denaturation at 95° C. for 15 seconds, annealing at 62° C. for 30 seconds, and elongation at 72° C. for 1 minute. For protein expression analysis, proteins were extracted from the cultured cells using RIPA lysis buffer. The extracted proteins were pretreated by reacting at 95° C. for 5 minutes, and then separated by electrophoresis on SDS-PAGE. After transferring the proteins to the PVDF membrane, they were blocked in a 5% (w/v) BSA solution for 1 hour, and the primary antibodies for each factor were diluted 1:1000 in a 5% (w/v) BSA solution and reacted at 4° C. for 1 day. […] The bands were detected using a LAS 4000 system, and the expression density was calculated using image detection software (image J software) to calculate the expression amount.

## O=C(CO)C(O)C(O)C(O)CO (centres unmarked) [allulose]
[1]
  expression amount of NF-κB p65/p50: decreased
  expression amount of TLR4 activated by LPS: decreased
[1]; vs LPS control without allulose
  expression level of factors related to TLR4/NF-κB signaling (mRNA and protein): decreased
[2]
  MAPK signal (p38, p-p38, JNK, p-JNK, c-Jun, p-c-Jun, c-Fos, p-c-Fos): decreased
  MyD88, IRAK4, TRAF6 expression: decreased
  NF-κB signal (p50, p65, p-p65, Ikkα, Ikkβ, p-Ikkαβ, Ikβα, p-Ikβα): decreased
  expression level of COX-2: decreased
  expression level of TLR4: decreased
[3]; Caco-2, ELISA of supernatant
  concentration of Prostaglandin E2: decreased
[3]; Caco-2, RT-PCR
  expression level of COX-2: decreased
[4]
  expression level of MUC2: decreased
  expression level of MUC5AC: decreased
  expression level of MUC5B: decreased
[5]
  electrical resistance value (TEER): increased
[6]
  accumulated ROS: reduced
[7]
  mRNA and protein expression levels of Occludin: increased
  mRNA and protein expression levels of ZO-1: increased
